From patent US6727237B2, “Inhibitors of bacterial NAD synthetase” (priority 1998, dated 2004)

These compounds were tested against T1, bacterial NAD synthetase enzyme (Bacillus subtilis, UniProt P08164) (assay: biochemical). Settings: not given.
T1 sequence (P08164 2-272 limits assumed): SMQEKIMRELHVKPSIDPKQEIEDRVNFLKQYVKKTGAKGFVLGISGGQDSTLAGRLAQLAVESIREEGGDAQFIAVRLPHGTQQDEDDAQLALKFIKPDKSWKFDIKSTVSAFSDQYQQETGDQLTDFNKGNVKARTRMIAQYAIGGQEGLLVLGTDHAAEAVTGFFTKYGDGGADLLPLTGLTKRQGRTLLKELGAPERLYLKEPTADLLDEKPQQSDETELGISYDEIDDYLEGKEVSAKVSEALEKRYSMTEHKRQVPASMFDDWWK
Format: biochemical

Structure (SMILES) | IC50 | inhibition at 100 µM | inhibition at 200 µM | inhibition at 250 µM
CC(=O)c1ccc2[nH]c(CCCCCCCCOC(=O)c3ccc[n+](C)c3)cc2c1 [Compound 924] | 25 µM | 97.7% |  | 
CC(=O)c1ccc(OCCCCCCCCOC(=O)Cc2ccc([N+](C)(C)C)cc2)cc1 [Compound 1078] | 123 µM |  | 68% | 
CC(=O)c1ccccc1OCCCCCCCCOC(=O)Cc1ccc([N+](C)(C)C)cc1 [Compound 1076] | 135 µM |  | 74% | 
CC(=O)c1ccc2[nH]c(CCCCCCCCOC(=O)c3cccc([N+](C)(C)C)c3)cc2c1 [Compound 879] | 40 µM | 99.6% |  | 
c1ccc(Oc2ccc3[nH]c(CCCC[n+]4ccccc4)cc3c2)cc1 [Compound 349] | 75 µM | 86.6% |  | 
CC(C)c1ccc2[nH]c(CCCCCCCCOC(=O)c3cc[n+](C)cc3)cc2c1 [Compound 906] | 25 µM |  |  | 
C[N+](C)(C)c1ccc(CC(=O)OCCCCCCCCOc2ccc(Oc3ccccc3)cc2)cc1 [Compound 1090] | 21.2 µM |  | 96% | 
C[N+](C)(C)c1ccc(CC(=O)OCCCCCCCCOc2ccc(OC(=O)c3ccccc3)cc2)cc1 [Compound 1082] | 50 µM |  | 81% | 
CCCCc1oc2ccccc2c1C(=O)c1ccc(OCCCOC(=O)c2ccc[n+](C)c2)cc1 [Compound 1064] | 37.5 µM |  | 92% | 
CC(C)c1ccc2[nH]c(CCCCCCCCOC(=O)c3ccc([N+](C)(C)C)cc3)cc2c1 [Compound 891] | 80 µM |  |  | 99.9%
C[n+]1cccc(CC(=O)OCCCCCCCCc2cc3cc(C(=O)c4ccccc4)ccc3[nH]2)c1 [Compound 942] | 75 µM | 97.8% |  | 

Same assay, conditions: NAD synthetase enzyme inhibition; read-out: IC50 of Compounds

Structure (SMILES) | IC50
CCCCc1oc2ccccc2c1C(=O)c1ccc(OCCCCCCCCOC(=O)Cc2ccc([N+](C)(C)C)cc2)cc1 [Compound 1084] | 12.5 µM
COC(=O)c1cc2cc(OCc3ccccc3)ccc2n1CCCCCCCOC(=O)c1ccc(CN(C)C)cc1 [Compound 1096] | 68.9 µM
C[N+](C)(C)c1ccc(CC(=O)OCCCCCCCCOc2ccccc2[N+](=O)[O-])cc1 [Compound 1075] | 65 µM

Same assay, conditions: compound at 0.05 mM

Structure (SMILES) | % Inhibition
COC(=O)c1cc2ccccc2n1CCCCCCCOC(=O)Cc1ccc(N(C)C)cc1 [Compound 960] | 6.37%
COC(=O)c1cc2ccccc2n1CCCCCCCCCOC(=O)c1cccnc1 [Compound 950] | 7.32%

Same assay, conditions: compound at 0.1 mM (Table 314)

Structure (SMILES) | % Inhibition
c1ccc(-c2ccc3[nH]c(CCCC[n+]4ccccc4)cc3c2)cc1 [Compound 325] | 53.22%
CCCCc1ccc2[nH]c(CCCC[n+]3ccccc3)cc2c1 [Compound 313] | 27.37%
O=C(O)/C=C/c1cn(CCCC[n+]2cccc3ccccc32)c2ccccc12 [Compound 154] | 9.24%
c1ccc(Oc2ccc3[nH]c(CCCCCCC[n+]4ccccc4)cc3c2)cc1 [Compound 352] | 32.69%
c1ccc2[nH]c(CCCCCCCC[n+]3cccc4ccccc43)cc2c1 [Compound 395] | 20.85%
CC(C)c1ccc2[nH]c(CCCCOC(=O)c3cc[n+](C)cc3)cc2c1 [Compound 904] | 47.68%

Same assay, conditions: compound at 0.2 mM (Table 312A)

Structure (SMILES) | % Inhibition
O=[N+]([O-])c1cc([N+](=O)[O-])c2[nH]c(CCCCCCCC[n+]3cccc4ccccc43)cc2c1 [Compound 419] | 24.28%
CC(C)c1ccc2[nH]c(CCCC[n+]3ccc4ccccc4c3)cc2c1 [Compound 535] | 12.61%
COc1ccc2[nH]c(CCCCCCC[n+]3cccc4ccccc43)cc2c1 [Compound 484] | 39.95%
O=C(O)c1ccc2[nH]c(CCCCCCC[n+]3ccc4ccccc4c3)cc2c1 [Compound 604] | 34.10%
CCCCc1ccc2[nH]c(CCCCCCCC[n+]3ccc4ccccc4c3)cc2c1 [Compound 533] | 24.68%
O=[N+]([O-])c1cc([N+](=O)[O-])c2[nH]c(CCCCCCCC[n+]3ccc4ccccc4c3)cc2c1 [Compound 527] | 73.78%
Fc1ccc2[nH]c(CCCCCC[n+]3ccc4ccccc4c3)cc2c1 [Compound 561] | 24.70%
O=[N+]([O-])c1cc([N+](=O)[O-])c2[nH]c(CCCCCCC[n+]3ccc4ccccc4c3)cc2c1 [Compound 526] | 42.77%
O=[N+]([O-])c1cc([N+](=O)[O-])c2[nH]c(CCC[n+]3cccc4ccccc43)cc2c1 [Compound 414] | 6.91%
c1ccc(Oc2ccc3[nH]c(CCCCCCCC[n+]4ccc5ccccc5c4)cc3c2)cc1 [Compound 569] | 34.84%
Cc1ccc2[nH]c(CCC[n+]3ccc4ccccc4c3)cc2c1 [Compound 510] | 20.99%
Fc1ccc2[nH]c(CCC[n+]3ccc4ccccc4c3)cc2c1 [Compound 558] | 1.27%
COC(=O)c1ccc2[nH]c(CCCC[n+]3ccccc3)cc2c1 [Compound 379] | 6.27%
Cc1ccc2[nH]c(CCCCCCCC[n+]3ccc4ccccc4c3)cc2c1 [Compound 515] | 30.39%
CC(=O)c1ccc2[nH]c(CCCC[n+]3ccc4ccccc4c3)cc2c1 [Compound 583] | 31.37%
Fc1cc(F)c2[nH]c(CCCCCCCC[n+]3ccc4ccccc4c3)cc2c1 [Compound 521] | 29.59%
O=C(c1ccccc1)c1ccc2[nH]c(CCCC[n+]3ccc4ccccc4c3)cc2c1 [Compound 571] | 17.47%

Structure (SMILES) | % Inhibition
c1ccc(Oc2ccc3[nH]c(CCCCCCC[n+]4cccc5ccccc54)cc3c2)cc1 [Compound 460] | 4.17%
O=C(O)c1ccc2[nH]c(CCCCCCCC[n+]3ccccc3)cc2c1 [Compound 389] | 12.44%
O=C(OCCCCCCCc1cc2ccc(C(F)(F)F)cc2[nH]1)c1ccncc1 [Compound 697] | 4.28%
Fc1cc(F)c2[nH]c(CCCCCCC[n+]3ccc4ccccc4c3)cc2c1 [Compound 520] | 55.83%
C[n+]1cccc(C(=O)OCCCCCCn2ccc3ccccc32)c1 [Compound 967] | 19.51%
CCCCc1ccc2[nH]c(CCCC[n+]3cccc4ccccc43)cc2c1 [Compound 421] | 1.86%
C[N+](C)(C)c1ccc(CC(=O)OCCCCCCn2ccc3ccccc32)cc1 [Compound 979] | 38.72%
O=[N+]([O-])c1cc([N+](=O)[O-])c2[nH]c(CCCCCCC[n+]3cccc4ccccc43)cc2c1 [Compound 418] | 5.95%
O=[N+]([O-])c1ccc2[nH]c(CCC[n+]3ccccc3)cc2c1 [Compound 330] | 23.96%
COc1ccc2c(ccn2CCCCCOC(=O)Cc2ccc([N+](C)(C)C)cc2)c1 [Compound 741] | 30.47%
FC(F)(F)c1ccc2cc(CCCCCCCC[n+]3cccc4ccccc43)[nH]c2c1 [Compound 401] | 14.26%
CN(C)c1ccc(C(=O)OCCCCCCCc2cc3cc(Oc4ccccc4)ccc3[nH]2)cc1 [Compound 619] | 19.53%
COC(=O)C=Cc1cn(CCCCC[n+]2cccc(C(=O)OC)c2)c2ccccc12 [Compound 268] | 11.23%
O=C(O)c1ccc2[nH]c(CCCC[n+]3cccc4ccccc43)cc2c1 [Compound 493] | 9.12%
O=C(c1ccccc1)c1ccc2[nH]c(CCCCCCC[n+]3ccccc3)cc2c1 [Compound 358] | 23.19%
c1ccc(Oc2ccc3[nH]c(CCCCCC[n+]4ccc5ccccc5c4)cc3c2)cc1 [Compound 567] | 22.51%
FC(F)(F)c1ccc2cc(CCCCCCC[n+]3ccccc3)[nH]c2c1 [Compound 292] | 44.36%

Same assay, conditions: compound at 0.2 mM (Table 312B)

Structure (SMILES) | % Inhibition
C[N+](C)(C)c1ccc(CC(=O)OCCCCCCCCOc2ccc([N+](=O)[O-])cc2)cc1 [Compound 1073] | 78%
C[n+]1cccc(C(=O)OCCCCCCCCOc2ccc(C=CC(=O)c3ccccc3)cc2)c1 [compound 1063] | 32%
CCCCc1oc2ccccc2c1C(=O)c1ccc(OCCCCCCCCOC(=O)Cc2ccc([N+](C)(C)C)cc2)cc1 [Compound 1084] | 106%
COC(=O)c1cc2cc(OCc3ccccc3)ccc2n1CCCCCCCOC(=O)c1ccc(CN(C)C)cc1 [Compound 1096] | 140%
CC(=O)c1cccc(OCCCCCCCCOC(=O)c2cccnc2)c1 [Compound 1015] | 15%
C[N+](C)(C)c1ccc(CC(=O)OCCCCCCCCOc2ccccc2[N+](=O)[O-])cc1 [Compound 1075] | 79%
C[n+]1cccc(C(=O)OCCCCCCCCOc2ccc(N3C(=O)c4ccccc4C3=O)cc2)c1 [compound 1071] | 55%
CN(C)c1ccc(CC(=O)OCCCCCCCCOc2ccc(C(=O)c3ccccc3)cc2)cc1 [Compound 1040] | 3%
O=C(OCCCCCCCCOc1ccc(N2C(=O)c3ccccc3C2=O)cc1)c1cccnc1 [Compound 1017] | 23%
O=C(OCCCCCCCCOc1ccc(C(=O)c2ccccc2)cc1)c1cccnc1 [Compound 1013] | 29%

Same assay, conditions: compound at 0.25 mM

Structure (SMILES) | % Inhibition
C[n+]1cccc(C(=O)OCCCCc2cc3ccc(C(F)(F)F)cc3[nH]2)c1 [Compound 913] | 7.6%
C[n+]1cccc(C(=O)OCCCCCCCCc2cc3cc(C(=O)c4ccccc4)ccc3[nH]2)c1 [Compound 927] | 93.1%
C[n+]1ccc(C(=O)OCCCCc2cc3ccc(C(F)(F)F)cc3[nH]2)cc1 [Compound 898] | 51.8%
CC(=O)c1ccc2[nH]c(CCCCCCCOC(=O)c3ccc([N+](C)(C)C)cc3)cc2c1 [Compound 893] | 13.8%
C[N+](C)(C)c1ccc(C(=O)OCCCCc2cc3cc(C(=O)c4ccccc4)ccc3[nH]2)cc1 [Compound 895] | 95.7%
C[n+]1cccc(CC(=O)OCCCCc2cc3cc(Oc4ccccc4)ccc3[nH]2)c1 [Compound 931] | 15.8%
C[n+]1cccc(CC(=O)OCCCCCCCCc2cc3ccc(C(F)(F)F)cc3[nH]2)c1 [Compound 930] | 96.7%
C[N+](C)(C)c1cccc(C(=O)OCCCCCCCCc2cc3ccc(C(F)(F)F)cc3[nH]2)c1 [Compound 870] | 63.1%
